Laboratory results reported in patent publication US11814375B2, “Heterocyclic compounds” (Hoffmann-La Roche Inc., priority 2019, dated 2023).

Target: T1, MAGL (Homo sapiens, UniProt Q99685)
T1 sequence (Q99685 1-303): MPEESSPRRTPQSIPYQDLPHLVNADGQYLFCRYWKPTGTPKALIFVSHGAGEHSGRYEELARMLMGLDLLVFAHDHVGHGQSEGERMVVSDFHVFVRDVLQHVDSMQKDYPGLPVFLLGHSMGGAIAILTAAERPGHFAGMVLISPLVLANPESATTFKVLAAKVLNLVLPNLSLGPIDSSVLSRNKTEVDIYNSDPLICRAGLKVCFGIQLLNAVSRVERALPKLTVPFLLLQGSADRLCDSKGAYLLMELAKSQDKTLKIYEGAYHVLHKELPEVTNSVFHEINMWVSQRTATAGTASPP
Assay: 2-AG assay: MAGL inhibitory activity by hydrolysis of 2-arachidonoylglycerol to arachidonic acid, followed by mass spectrometry
Type: biochemical
Details: 8 μM 2-arachidonoylglycerol, 15 min preincubation and 30 min reaction at RT, arachidonic acid/d8-arachidonic acid ratio by MS
Procedure: Compounds of formula (I) were profiled for MAGL inhibitory activity by determining the enzymatic activity by following the hydrolysis of the natural substrate 2-arachidonoylglycerol (2-AG) resulting in arachidonic acid, which can be followed by mass spectrometry. This assay is hereinafter abbreviated “2-AG assay”.
The 2-AG assay was carried out in 384 well assay plates (PP, Greiner Cat #784201) in a total volume of 20 μL. Compound dilutions were made in 100% DMSO (VWR Chemicals 23500.297) in a polypropylene plate in 3-fold dilution steps to give a final concentration range in the assay from 12.5 μM to […]. 0.25 μL compound dilutions (100% DMSO) were added to 9 μL MAGL in assay buffer (50 mM TRIS (GIBCO, 15567-027), 1 mM EDTA (Fluka, 03690-100 mL), 0.01% (v/v) Tween. After shaking, the plate was incubated for 15 min at RT. To start the reaction, 10 μL 2-arachidonoylglycerol in assay buffer was added. The final concentrations in the assay was […] and 8 μM 2-arachidonoylglyerol. After shaking and 30 min incubation at RT, the reaction was quenched by the addition of 40 μL of ACN containing 4 μM of d8-arachidonic acid. The amount of arachidonic acid was traced by an online SPE system (Agilent Rapidfire) coupled to a triple quadrupole mass spectrometer (Agilent 6460). A C18 SPE cartridge (G9205A) was used in an ACN/water liquid setup. The mass spectrometer was operated in negative electrospray mode following the mass transitions 303.1→259.1 for arachidonic acid and 311.1→267.0 for d8-arachidonic acid. The activity of the compounds was calculated based on the ratio of intensities [arachidonic acid/d8-arachidonic acid].

| IC50 | Compound |
| --- | --- |
| 0.02 nM | O=C1CO[C@H]2CCN(C(=O)N3CC(c4ccc(Oc5ccccc5Cl)cc4)C3)C[C@H]2N1 [Example 2, (4aR,8aS)-6-[3-[4-(2-Chlorophenoxy)phenyl]azetidine-1-carbonyl]-4,4a,5,7,8,8a-hexahydropyrido[4,3-b][1,4]oxazin-3-one] |
| 2.4 nM | O=C1CO[C@H]2CCN(C(=O)N3CC(c4ccc(Oc5ccc(OC(F)(F)F)cc5)nc4)C3)C[C@H]2N1 [Example 49, (4aR,8aS)-6-(3-(6-(4-(Trifluoromethoxy)phenoxy)pyridin-3-yl)azetidine-1-carbonyl)hexahydro-2H-pyrido[4,3-b][1,4]oxazin-3(4H)-one] |
| 3.9 nM | Cc1cccc(Oc2ccc(C3CN(C(=O)N4CC[C@@H]5OCC(=O)N[C@@H]5C4)C3)cc2)n1 [Example 26, (+)-(4aR,8aS)-6-[3-[4-[(6-Methyl-2-pyridyl)oxy]phenyl]azetidine-1-carbonyl]-4,4a,5,7,8,8a-hexahydropyrido[4,3-b][1,4]oxazin-3-one] |
| 13.4 nM | O=C1CO[C@H]2CCN(C(=O)N3CC(c4ccc(Oc5nccc(C(F)(F)F)n5)cc4)C3)C[C@H]2N1 [Example 14, (+)-(4aR,8aS)-6-[3-[4-[4-(Trifluoromethyl)pyrimidin-2-yl]oxyphenyl]azetidine-1-carbonyl]-4,4a,5,7,8,8a-hexahydropyrido[4,3-b][1,4]oxazin-3-one] |
| 0.04 nM | O=C1CO[C@H]2CCN(C(=O)N3CC(c4ccc(Oc5ccnc(Cl)n5)cc4)C3)C[C@H]2N1 [Example 24, (+)-(4aR,8aS)-6-[3-[4-(2-Chloropyrimidin-4-yl)oxyphenyl]azetidine-1-carbonyl]-4,4a,5,7,8,8a-hexahydropyrido[4,3-b][1,4]oxazin-3-one] |
| 0.2 nM | CC(C)(C)Cn1nccc1-c1ccc(C2CN(C(=O)N3CC[C@@H]4OCC(=O)N[C@@H]4C3)C2)cc1 [Example 32a, (4aR,8aS)-6-[3-[4-[2-(2,2-Dimethylpropyl)pyrazol-3-yl]phenyl]azetidine-1-carbonyl]-4,4a,5,7,8,8a-hexahydropyrido[4,3-b][1,4]oxazin-3-one] |
| 0.05 nM | O=C1CO[C@H]2CCN(C(=O)N3CC(c4ccc(Oc5ccc(F)cc5)cc4)C3)C[C@H]2N1 [Example 16, (+)-(4aR,8aS)-6-[3-[4-(4-Fluorophenoxy)phenyl]azetidine-1-carbonyl]-4,4a,5,7,8,8a-hexahydropyrido[4,3-b][1,4]oxazin-3-one] |
| 90.9 nM | CS(=O)(=O)c1nccc(Oc2ccc(C3CN(C(=O)N4CC[C@@H]5OCC(=O)N[C@@H]5C4)C3)cc2)n1 [Example 29, (+)-(4aR,8aS)-6-[3-[4-(2-Methylsulfonylpyrimidin-4-yl)oxyphenyl]azetidine-1-carbonyl]-4,4a,5,7,8,8a-hexahydropyrido[4,3-b][1,4]oxazin-3-one] |
| 2.7 nM | O=C1CO[C@H]2CCN(C(=O)N3CC(c4ccc(-c5ncccc5Cl)cc4)C3)C[C@H]2N1 [Example 33, (4aR,8aS)-6-[3-[4-(3-Chloro-2-pyridyl)phenyl]azetidine-1-carbonyl]-4,4a,5,7,8,8a-hexahydropyrido[4,3-b][1,4]oxazin-3-one] |
| 0.03 nM | Cc1ccccc1Oc1ccc(C2CN(C(=O)N3CC[C@@H]4OCC(=O)N[C@@H]4C3)C2)cc1 [Example 21, (+)-(4aR,8aS)-6-[3-[4-(2-Methylphenoxy)phenyl]azetidine-1-carbonyl]-4,4a,5,7,8,8a-hexahydropyrido[4,3-b][1,4]oxazin-3-one] |
| 8.5 nM | CC(C)(C)Cc1nnc(-c2ccc(C3CN(C(=O)N4CC[C@@H]5OCC(=O)N[C@@H]5C4)C3)cc2)o1 [Example 38, (4aR,8aS)-6-[3-[4-[5-(2,2-Dimethylpropyl)-1,3,4-oxadiazol-2-yl]phenyl]azetidine-1-carbonyl]-4,4a,5,7,8,8a-hexahydropyrido[4,3-b][1,4]oxazin-3-one] |
| 0.05 nM | O=C1CO[C@H]2CCN(C(=O)N3CC(c4ccc(Oc5ccccc5F)cc4)C3)C[C@H]2N1 [Example 18, (+)-(4aR,8aS)-6-[3-[4-(2-fluorophenoxy)phenyl]azetidine-1-carbonyl]-4,4a,5,7,8,8a-hexahydropyrido[4,3-b][1,4]oxazin-3-one] |
| 15.5 nM | O=C1CO[C@H]2CCN(C(=O)N3CC(O)(c4ccc(Oc5ccccc5)cn4)C3)C[C@H]2N1 [Example 56, (4aR,8aS)-6-[3-Hydroxy-3-(5-phenoxy-2-pyridyl)azetidine-1-carbonyl]-4,4a,5,7,8,8a-hexahydropyrido[4,3-b][1,4]oxazin-3-one] |
| 91.9 nM | O=C1CO[C@H]2CCN(C(=O)N3CC(c4ccc(-c5ccn[nH]5)cc4)C3)C[C@H]2N1 [Example 31, (4aR,8aS)-6-[3-[4-(1H-Pyrazol-5-yl)phenyl]azetidine-1-carbonyl]-4,4a,5,7,8,8a-hexahydropyrido[4,3-b][1,4]oxazin-3-one] |
| 23.5 nM | O=C1CO[C@H]2CCN(C(=O)N3CC(c4ccc(Oc5ccnnc5Cl)cc4)C3)C[C@H]2N1 [Example 12, (+)-(4aR,8aS)-6-[3-[4-(3-Chloropyridazin-4-yl)oxyphenyl]azetidine-1-carbonyl]-4,4a,5,7,8,8a-hexahydropyrido[4,3-b][1,4]oxazin-3-one] |
| 19.3 nM | O=C1CO[C@H]2CCN(C(=O)N3CC(c4ccc(-c5ccc(F)nc5)cc4)C3)C[C@H]2N1 [Example 43, (4aR,8aS)-6-[3-[4-(6-Fluoropyridin-3-yl)phenyl]azetidine-1-carbonyl]-4,4a,5,7,8,8a-hexahydropyrido[4,3-b][1,4]oxazin-3-one] |
| 6.7 nM | O=C1CO[C@H]2CCN(C(=O)N3CC(c4ccc(-c5ccnn5CCF)cc4)C3)C[C@H]2N1 [Example 39, (4aR,8aS)-6-[3-[4-[2-(2-Fluoroethyl)pyrazol-3-yl]phenyl]azetidine-1-carbonyl]-4,4a,5,7,8,8a-hexahydropyrido[4,3-b][1,4]oxazin-3-one] |
| 75.4 nM | O=C1CO[C@H]2CCN(C(=O)N3CC(c4ccc(Oc5ncccn5)cc4)C3)C[C@H]2N1 [Example 3, (4aR,8aS)-6-[3-(4-Pyrimidin-2-yloxyphenyl)azetidine-1-carbonyl]-4,4a,5,7,8,8a-hexahydropyrido[4,3-b][1,4]oxazin-3-one] |
| 4.2 nM | O=C1CO[C@H]2CCN(C(=O)N3CC(c4ccc(Oc5nccc(C6CC6)n5)cc4)C3)C[C@H]2N1 [Example 25, (+)-(4aR,8aS)-6-[3-[4-(4-Cyclopropylpyrimidin-2-yl)oxyphenyl]azetidine-1-carbonyl]-4,4a,5,7,8,8a-hexahydropyrido[4,3-b][1,4]oxazin-3-one] |
| 0.2 nM | N#Cc1ccccc1Oc1ccc(C2CN(C(=O)N3CC[C@@H]4OCC(=O)N[C@@H]4C3)C2)cc1 [Example 23, (+)-2-[4-[1-[(4aR,8aS)-3-Oxo-4,4a,5,7,8,8a-hexahydropyrido[4,3-b][1,4]oxazine-6-carbonyl]azetidin-3-yl]phenoxy]benzonitrile] |
| 22.9 nM | Cc1nc(C)c(-c2ccc(C3CN(C(=O)N4CC[C@@H]5OCC(=O)N[C@@H]5C4)C3)cc2)o1 [Example 34, (4aR,8aS)-6-[3-[4-(2,4-Dimethyloxazol-5-yl)phenyl]azetidine-1-carbonyl]-4,4a,5,7,8,8a-hexahydropyrido[4,3-b][1,4]oxazin-3-one] |
| 2.4 nM | CC(C)(C)Cc1nc(-c2ccc(C3CN(C(=O)N4CC[C@@H]5OCC(=O)N[C@@H]5C4)C3)cc2)no1 [Example 37, (4aR,8aS)-6-[3-[4-[5-(2,2-Dimethylpropyl)-1,2,4-oxadiazol-3-yl]phenyl]azetidine-1-carbonyl]-4,4a,5,7,8,8a-hexahydropyrido[4,3-b][1,4]oxazin-3-one] |
| 0.06 nM | O=C1CO[C@H]2CCN(C(=O)N3CC(c4ccc(Oc5cccc(C(F)(F)F)c5)cc4)C3)C[C@H]2N1 [Example 22, (+)-(4aR,8aS)-6-[3-[4-[3-(Trifluoromethyl)phenoxy]phenyl]azetidine-1-carbonyl]-4,4a,5,7,8,8a-hexahydropyrido[4,3-b][1,4]oxazin-3-one] |
| 10.4 nM | O=C1CO[C@H]2CCN(C(=O)N3CCC(c4ccc(Oc5ccc(F)cc5)cc4)CC3)C[C@H]2N1 [Example 54, (4aR,8aS)-6-[4-[4-(4-Fluorophenoxy)phenyl]piperidine-1-carbonyl]-4,4a,5,7,8,8a-hexahydropyrido[4,3-b][1,4]oxazin-3-one] |
